Data as given in patent US20220402917A1, “COMPOUND AS SMALL MOLECULE INHIBITOR PD-1/PD-L1 AND APPLICATION THEREOF” (MEDSHINE DISCOVERY INC., priority 2019, published 2022).

Tests used:
[1] = target: T1, PD-L1 in MDA-MR-231 cells (Homo sapiens, UniProt Q9NZQ7); test: Effect on expression level of PD-L1 in MDA-MR-231 cells (FACS); assay type: cell-based; conditions: 24 hours incubation, FACS detection of cell surface PD-L1
T1 construct: endogenous in cells; host or cells: MDA-MB-231
Method: Experimental Example 2: Using MDA-MR-231 Cells to Detect the Effect of Compounds on the Expression Level of PD-L1
The use of a triple-negative breast cancer cell line (MDA-MB-231) is an indirect method to assess PD-L1 endocytosis. PD-L1 molecules on the cell surface can be degraded by lysosomal and proteasome pathways, and small molecule inhibitors are added to induce PD-L1 endocytosis. After co-incubating small molecules with MDA-MB-231 cells for 24 hours, flow cytometry (Fluorescence-activated Cell Sorting, FACS) is used to detect the content of PD-L1 on the cell surface, which can indirectly reflect the effect of small molecule-induced PD-L1 endocytosis. Flow cytometry (FACS) is used to detect the effect of the compounds of the present disclosure on the expression level of PD-L1 in MDA-MR-231 cells.
Phosphate buffer (DPBS), 1640 medium, penicillin-streptomycin, fetal bovine serum, non-essential amino acids, 2-hydroxy-1-ethanethiol (2-ME), human interferon γ, LIVE/DEAD staining solution, staining buffer, fixation buffer, 0.25% trypsin, EDTA, anti-human PD-L1, anti-human PD-L1 isotype.
1640 complete medium preparation: 50 mL of fetal bovine serum, 5 mL of non-essential amino acids, 5 mL of penicillin-streptomycin and 0.5 mL of 2-hydroxy-1-ethanethiol were added to 439.5 mL of 1640 medium, and evenly mixed.
10 mM EDTA preparation: 1 mL of 0.5M EDTA was added to 49 mL of DPBS, and evenly mixed.
1) MDA-MB-231 cell counting and plating: The culture flask was taken out, the medium was removed and the culture flask was rinsed once with DPBS. After the culture flask was rinsed, 3 mL of 0.25% trypsin was added to the culture flask and the culture flask was placed in a 37° C. incubator for 1.5 min. The culture flask was taken out, 9 mL of 1640 complete medium was added to stop the reaction, the cells was transferred to a 50 mL centrifuge tube, and centrifuged at 1000 rpm for 5 min at 37° C. An appropriate volume of medium was added to re-suspend the cells according to the number of cells, and the number of cells was counted with a cell counter. The cell concentration was adjusted to 5×10^5 cells/mL with medium. Planking: A volume of 200 μL of cell suspension was added to each well of a 96-well plate, ensure that the number of cells in each well was 1×10^5. The cells were incubated overnight in an incubator. 2) Drug incubation: 100-fold dilution of compounds were prepared, and the drug was subjected to a 5-fold gradient dilution. 2 μL of each 100-fold dilution of compounds were added to each well. The cells were incubated in an incubator at 37° C. for 24 hours. 3) PD-L1 cell staining and FACS detection: the culture plate was taken out and the supernatant medium was discarded. The cells were washed once with 200 μL 1×PBS. 100 μL of EDTA (final concentration of 10 mM) was added to the cell suspension, and the cell suspension was treated at 37° C. for 10 min. Then after the cell suspension was centrifuged at 1500 rpm for 5 min, the cell suspension was washed once with 200 μL of staining solution. Staining: anti-human PD-L1 (2 μL per well) and LIVE/DEAD staining solution (1:1000) were diluted in staining solution, 50 μL of the staining solution was added to each well, and the staining was conducted at 4° C. for 30 min. Then the solution was washed twice with 200 μL of staining solution. Fixation: 100 μL of fixing solution was added to each well, the fixation was conducted at 4° C. for 15 min. The solution was then washed twice with 200 μL of staining solution, and 150 μL of solution was added to re-suspend the cells, followed by FACS detection.
Table 2 provides the effects of the compounds of the examples of the present disclosure on the expression level of PD-L1 in MDA-MR-231 cells.

[2] = target: PD1/PD-L1 (Homo sapiens, UniProt Q9NZQ7); test: NFAT activity test (TCR Activitor/PD-L1 CHO cells with PD-1/NFAT Reporter-Jurkat cells); assay type: cell-based; parameters: host or cells: TCR Activitor/PD-L1 CHO cells; PD-1/NFAT Reporter-Jurkat cells; conditions: TCR Activitor/PD-L1 CHO cells + PD-1/NFAT Reporter-Jurkat cells, 5 hours, luciferase; for IC50: read-out: IC50, inhibitory activity on PD1/PD-L1 binding (NFAT activity test)
Sequence of PD1/PD-L1 (Q9NZQ7 19-290): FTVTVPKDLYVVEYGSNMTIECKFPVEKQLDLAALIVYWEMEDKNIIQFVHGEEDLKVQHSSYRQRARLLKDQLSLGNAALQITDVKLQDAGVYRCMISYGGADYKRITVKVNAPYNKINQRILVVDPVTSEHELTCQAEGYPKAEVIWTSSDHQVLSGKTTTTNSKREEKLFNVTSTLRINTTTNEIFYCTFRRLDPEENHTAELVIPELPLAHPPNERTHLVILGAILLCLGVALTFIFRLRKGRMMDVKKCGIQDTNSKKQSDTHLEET
From the text: Experimental Example 3: NFAT Activity Test
The engineered T cell expresses PD-1 molecules and T cell receptor (TCR) on the surface, which can activate the NFAT signaling pathway of T cells after co-culturing with engineered antigen presenting cells (APCs). Expression of PD-L1 molecules on APCs can effectively attenuate the NFAT signaling pathway in T cells. PD-L1 inhibitors can be used effectively block the PD-1/PD-L1 regulatory mechanism, thereby reversing the weakened NFAT signaling pathway. After being pretreated with APC, the small molecule is co-cultured with T cells, then the expression of luciferase was detected to indirectly reflect the activation of the NFAT pathway in T cells.
The PD1/PD-L1 NFAT detection kit was purchased from BPS Biosciences. Birght-Glo reagent was purchased from Promega. Nivo multi-label analyzer (PerkinElmer).
The TCR Activitor/PD-L1 CHO cells with a growth confluence of 80% were plated into the plate at 35,000 cells per well and placed in a 37° C. cell culture incubator overnight; the compounds to be tested were diluted 5-fold to the 8th concentration, from 20 μM to 0.25 nM, and the DMSO concentration was 2%, a double-well experiment was set up. The TCR Activitor/PD-L1 CHO cell supernatant was discarded, 50 μl of compound working solution was added to each well, incubated at 37° C. for 30 minutes; after the incubation was completed, 50 μL of PD-1/NFAT Reporter-Jurkat cell suspension with a concentration of 4*10^5 cells/mL was added to each well, incubated at 37° C. for 5 hours. After the incubation was completed, 100 μL Bright-Glo was added to each well, and after mixing, the chemiluminescence signal was detected by a Nivo multi-label analyzer.
Using the equation (sample−Min)/(Max−Min)×100% to convert the raw data into inhibition rate, and the IC50 value can be obtained by curve fitting with four parameters (obtained from log(inhibitor) vs. response—Variable slope mode in GraphPad Prism). Table 3 provides the inhibitory activity of the compounds of the examples of the present disclosure on PD1/PD-L1 binding.

[3] = Pharmacokinetic test in C57BL/6 mice; assay type: in vivo; conditions: mouse, plasma, male C57BL/6 mice
Method: Experimental Example 4: Pharmacokinetic Test
Experimental purpose: To study the pharmacokinetics of compounds in C57BL/6 mice.
Experimental materials: C57BL/6 mice (male, 8 weeks old, body weight 25 g-30 g)
Experimental operation: The pharmacokinetic characteristics of rodents after intravenous (IV) and oral (PO) administration of compounds were tested in standard protocols. In the experiment, the candidate compounds were formulated into 1 mg/mL clear solutions, and administered to mice via a single intravenous injection and oral administration. The vehicle of intravenous and oral administration was 5% DMSO/5% polyethylene glycol 15-hydroxystearate (Solutol)/90% aqueous solution. Four male C57BL/6 mice were used in the experiment, wherein two mice were administered intravenously at a dose of 1 mg/kg, and the plasma samples were collected 0.0833, 0.25, 0.5, 1, 2, 4, 6, 8 and 24 h after administration, the other two mice were given oral gavage at a dose of 10 mg/kg, and the plasma samples were collected 0.25, 0.5, 1, 2, 4, 6, 8, and 24 h after administration. Whole blood samples within 24 hours were collected, centrifuged at 3000 g for 15 minutes, and the supernatant was separated to obtain plasma samples. Acetonitrile solution containing internal standard was added thereto to precipitate proteins, the mixture was thoroughly mixed and centrifuged to obtain the supernatant for injection. The plasma concentration was quantified by LC-MS/MS analysis method, and the pharmacokinetic parameters were calculated, such as peak concentration (Cmax), clearance (CL), half-life (T1/2), […] (Vdss), area under the drug-time curve (AUC0-last), bioavailability (F) and so on.

T1 sequence (Q9NZQ7 19-290): as above

IC50 [1] [nM]	Maximum effect (induction fold) [2] [induction fold]	IC50 [2] [nM]	bioavailability ([3]; PO 10 mg/kg vs IV 1 mg/kg, read-out: Bioavailability F) [%]	Cmax ([3]; IV 1 mg/kg, PO 10 mg/kg (route not given for Cmax), read-out: Peak concentration Cmax) [nM]	clearance ([3]; IV 1 mg/kg, read-out: Clearance CL) [mL/min/kg]	half-life ([3]; IV 1 mg/kg, read-out: Half-life T1/2 (IV) (converted)) [h]	Vd ([3]; IV 1 mg/kg, read-out: Tissue distribution Vdss) [L/kg]	AUC(0-t) ([3]; PO 10 mg/kg, read-out: Area under the drug-time curve AUC0-last PO) [µM·h]	Compound
5.18	4.44	17.5	–	–	–	–	–	–	COc1nc(-c2cccc(-c3cccc(NC(=O)c4cc(C)c5c(n4)CN(CCO)CC5)c3Cl)c2Cl)cnc1CN1CC(CO)C1 [Compound 35]
5.27	3.50	29.2	–	–	–	–	–	–	COc1cc(C(=O)Nc2cccc(-c3cccc(-c4cnc(CN5CC(O)C5)c(OC)n4)c3Cl)c2Cl)nc2c1CCN(CCO)C2 [Compound 41]
37.2	4.01	52	–	–	–	–	–	–	COc1nc(-c2cccc(-c3cccc(NC(=O)c4cc(C)c5c(n4)CN(CCO)CC5)c3C#N)c2Cl)cnc1CN1CC(O)C1 [Compound 47]
33.8	5.30	175	–	–	–	–	–	–	COc1nc(-c2cccc(-c3cccc(NC(=O)c4cc(C)c5c(n4)CN(CCC(C)O)CC5)c3Cl)c2Cl)cnc1CN1CC(O)C1 (centres unmarked) [Compound 49]
–	4.55	45.8	63.5	221	85.5	3.72	18.3	1.66	COc1nc(-c2cccc(-c3cccc(NC(=O)c4cc(C)c5c(n4)CN(CCO)C5)c3Cl)c2Cl)cnc1CN1CC(O)C1 [Compound 50]

The remaining lines, values behind:

Compound	IC50 [1] [nM]	Maximum effect (induction fold) [2] [induction fold]	IC50 [2] [nM]	bioavailability ([3]; PO 10 mg/kg vs IV 1 mg/kg, read-out: Bioavailability F) [%]	Cmax ([3]; IV 1 mg/kg, PO 10 mg/kg (route not given for Cmax), read-out: Peak concentration Cmax) [nM]	clearance ([3]; IV 1 mg/kg, read-out: Clearance CL) [mL/min/kg]	half-life ([3]; IV 1 mg/kg, read-out: Half-life T1/2 (IV) (converted)) [h]	Vd ([3]; IV 1 mg/kg, read-out: Tissue distribution Vdss) [L/kg]	AUC(0-t) ([3]; PO 10 mg/kg, read-out: Area under the drug-time curve AUC0-last PO) [µM·h]
COc1nc(-c2cccc(-c3cccc(NC(=O)c4cc(C)c5c(n4)CN(CCO)CC5)c3Cl)c2Cl)cnc1CN1CCC2(CNC(=O)C2)C1 (centres unmarked) [Compound 32]	5.53	4.93	52.2	–	–	–	–	–	–
COc1nc(-c2cccc(-c3cccc(NC(=O)c4cc(C)c5c(n4)CN(CCO)CC5)c3Cl)c2Cl)cnc1CN1CCC(CO)C1 (centres unmarked) [Compound 33]	6.99	4.14	18.9	–	–	–	–	–	–
COc1nc(-c2cccc(-c3cccc(NC(=O)c4cc(C)c5c(n4)CN(CCO)CC5)c3Cl)c2Cl)cnc1CN[C@H]1C[C@](C)(O)C1 [Compound 34]	21.9	4.09	44.7	–	–	–	–	–	–
COc1nc(-c2cccc(-c3cccc(NC(=O)c4nc(C)c5c(n4)CN(CCO)CC5)c3Cl)c2Cl)cnc1CN1CC(O)C1 [Compound 36]	95.8	3.20	46.5	–	–	–	–	–	–
COc1nc(-c2cccc(-c3cccc(NC(=O)c4cc(C)c5c(n4)CN(CCO)CC5)c3Cl)c2Cl)cnc1CNCC1CCC(=O)N1 (centres unmarked) [Compound 38]	8.86	4.40	50.8	–	–	–	–	–	–
COc1nc(-c2cccc(-c3cccc(NC(=O)c4cc(C)c5c(n4)CN(CCO)CC5)c3Cl)c2Cl)cnc1CN1CC2(CC(O)C2)C1 [Compound 39]	5.52	4.62	11.9	–	–	–	–	–	–
COc1nc(-c2cccc(-c3cccc(NC(=O)c4cc(C)c5c(n4)CN(CCO)CC5)c3Cl)c2Cl)cnc1CN1CCCC1CO (centres unmarked) [Compound 40]	22.5	3.72	46.1	–	–	–	–	–	–
COc1nc(-c2cccc(-c3cccc(NC(=O)c4cc(C#N)c5c(n4)CN(CCO)CC5)c3Cl)c2Cl)cnc1CN1CC(O)C1 [Compound 45]	7.81	4.37	45.4	–	–	–	–	–	–
COc1nc(-c2cccc(-c3cccc(NC(=O)c4cc(C(F)(F)F)c5c(n4)CN(CCO)CC5)c3Cl)c2Cl)cnc1CN1CC(O)C1 [Compound 46]	22.6	5.56	571	–	–	–	–	–	–
COc1nc(-c2cccc(-c3cccc(NC(=O)c4cc(OC(F)F)c5c(n4)CN(CCO)CC5)c3Cl)c2Cl)cnc1CN1CC(O)C1 [Compound 48]	8.93	3.80	21.2	–	–	–	–	–	–
COc1nc(-c2cccc(-c3cccc(NC(=O)c4cc(OCc5cncc(C#N)c5)c5c(n4)CN(CCO)CC5)c3Cl)c2Cl)cnc1CN1CC(O)C1 [Compound 51]	25.8	4.28	47.9	–	–	–	–	–	–
